For series [1], the system named is 80S14 (p21-deficient) cells. Briefly: Cytotoxicity assay using isogenic cell lines: IC50 in 80S14 (p21-deficient) cells, SRB. Format: cell-based, human. As to conditions: Homo sapiens, 120 h, SRB. The method in brief:
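80S14 (p21-deficient) cells seeded at 12,000 cells/well overnight, then exposed 5 days at 37 °C to serial dilutions (5 pM–50 μM or 170 pg/ml–10 μg/ml). TCA-fixed, sulforhodamine B-stained, absorbance at 560 nm; IC50 taken from cytotoxicity curves versus untreated controls.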

In series [2] the test system is LoVo Colon cell line. The series can be described thus: Cytotoxicity assay using LoVo colon cell line, SRB. The series is classed as cell-based. The settings on record: Homo sapiens, 96 h, 4 days incubation, SRB, read-out: Inhibition of LoVo. The method in brief: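 LoVo cells (4000/well, RPMI 1640 with 10% FBS, 37 °C, 7% CO2) seeded overnight, then exposed 4 days to serial dilutions spanning 5 pM-20 μM or 170 pg/ml-10 μg/ml. Survival by SRB staining; IC50 from curves relative to untreated controls.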

[3] abbreviates: 80S14 (p21-deficient) cells, 5 days, class symbols, read-out: IC50 for 80S14.
Where [4] appears, read: 80S14 p21-deficient cells, 5 days incubation, read-out: IC50 for 80SI4.

pIC50: −log10 of the molar value. “And” between values parts separate entries of the source, which are not always exact repeats. Equal entries are not always repeated. Where two headings read alike, the source gives them in different places. A value given as a limit tells only on which side of the number the result lay.

This is an account of results in US20060063784A1, “Method of using substituted pyrazolo [1,5-a] pyrimidines” (priority 2004, published 2006).

As usually defined, the melting point is the temperature, or range, at which the solid turns liquid.

Take `CC(C)NC(=N)Nc1cccc(-c2ccnc3c(C(=O)c4cccs4)cnn23)c1` [Example 411, N-Isopropyl-N′-{3-[3-(thien-2-ylcarbonyl)pyrazolo[1,5-a]pyrimidin-7-yl]phenyl}guanidine]: the melting point was above 200 °C. Moreover, the pIC50 in series [1] (setting [3]) was 4.30 to 5.00.

On to `Nc1cccc(-c2ccnc3c(C(=O)c4cccs4)cnn23)c1` [Example 262, [7-(3-Aminophenyl)pyrazolo[1,5-a]pyrimidin-3-yl]-2-thienyl-methanone], for which the melting point is 183 to 184 °C and 183 to 185 °C. Also, in series [1] (setting [3]), the pIC50 is 4.30 to 5.00.

In the case of `COc1ccccc1/C=C/CNc1cccc(-c2ccnc3c(C(=O)c4cccs4)cnn23)c1` [Example 395, [7-(3-{[(2E)-3-(2-Methoxyphenyl)prop-2-enyl]amino}phenyl)pyrazolo[1,5-a]pyrimidin-3-yl](thien-2-yl)methanone], the melting point is 128 to 131 °C. The pIC50 in series [1] (setting [3]) is 4.30 to 5.00. Besides, the pIC50 in series [2] (Cellular activity in LoVo cell) is 4.70 to 6.00.

Compound `CC(C)NC(=NC#N)Nc1cccc(-c2ccnc3c(C(=O)c4cccs4)cnn23)c1` [Example 414, N″-Cyano-N-isopropyl-N′-{3-[3-(thien-2-ylcarbonyl)pyrazolo[1,5-a]pyrimidin-7-yl]phenyl}guanidine] returned a melting point of 240 to 241 °C. Besides, in series [1] (setting [3]), the pIC50 is above 6.00.

In turn, `O=C(c1cccs1)c1cnn2c(-c3cccc(-c4ccn(CCN5CCCCC5)n4)c3)ccnc12` [Example 519, (7-{3-[1-(2-piperidin-1-ylethyl)-1H-pyrazol-3-yl]phenyl}pyrazolo[1,5-a]pyrimidin-3-yl)(thien-2-yl)methanone] yielded a melting point of 62 °C. Moreover, the pIC50 in series [1] (setting [3]) is 5.00 to 6.00. Moreover, the pIC50 in series [2] (Cellular activity in LoVo cell) is 6.00 to 7.00.

For `CCCCNC(=O)Nc1cccc(-c2ccnc3c(C(=O)c4cccs4)cnn23)c1` [Example 8, N-butyl-N′-{3-[3-(thien-2-ylcarbonyl)pyrazolo[1,5-a]pyrimidin-7-yl]phenyl}urea], the melting point was in the range of 158 to 160 °C. For the same compound, the pIC50 in series [1] (setting [4]) was above 6.00. Further, the pIC50 in series [2] (LoVo colon cells) is above 7.00.

In the case of `O=C(c1cccs1)c1cnn2c(-c3cccc(NC(=O)C4CC4)c3)ccnc12` [Example 249, N-[3-[3-(2-Thienylcarbonyl)pyrazolo[1,5-a]pyrimidin-7-yl]phenyl}-cyclopropanecarboxamide], the melting point was 192 to 194 °C. In addition, the pIC50 in series [1] (setting [3]) is above 6.00.

As to `O=C(Nc1cccc(-c2ccnc3c(C(=O)c4cccs4)cnn23)c1)c1ccncc1` [Example 291, N-{3-[3-(2-Thienylcarbonyl)pyrazolo[1,5-a]pyrimidin-7-yl]phenyl}isonicotinamide], the melting point was 212 to 215 °C. Moreover, the pIC50 in series [1] (setting [3]) was above 6.00. In addition, the pIC50 in series [2] (Cellular activity in LoVo cell) was above 7.00.

Compound `Cc1cn(-c2cccc(-c3ccnc4c(C(=O)c5cccs5)cnn34)c2)cn1` [Example 247, [7-[3-(4-Methyl-1H-imidazol-1-yl)phenyl]-pyrazolo[1,5-a]pyrimidin-3-yl]-2-thienyl-methanone] had a melting point of 232 to 234 °C. Also, in series [1] (setting [3]), the pIC50 is 5.00 to 6.00. For the same compound, in series [2] (Cellular activity in LoVo cell), the pIC50 was 6.00 to 7.00.

As for `O=C(c1ccco1)c1cnn2c(-c3cccc(NC(=O)C4CC4)c3)ccnc12` [Example 235, N-[3-[3-(2-Furanylcarbonyl)-pyrazolo[1,5-a]pyrimidin-7-yl]phenyl}-cyclopropanecarboxamide], the melting point fell in the range of 227 to 230 °C. The pIC50 in series [1] (setting [3]) is above 6.00.

Regarding `O=C(c1cccs1)c1cnn2c(-c3cccs3)ccnc12` [Example 224, 2-Thienyl[7-(2-thienyl)pyrazolo[1,5-a]-pyrimidin-3-yl}-methanone], the melting point was 193 to 195 °C. For the same compound, the pIC50 in series [1] (setting [3]) was 5.00 to 6.00.

`O=C(c1cccs1)c1cnn2c(-c3cccc(-c4cc[nH]n4)c3)ccnc12` [Example 514, {7-[3-(1H-Pyrazol-3-yl)phenyl]pyrazolo[1,5-a]pyrimidin-3-yl}(thien-2-yl)methanone] gave a melting point of 129 °C. Also, the pIC50 in series [1] (setting [3]) is above 6.00. Further, the pIC50 in series [2] (Cellular activity in LoVo cell) is 6.00 to 7.00.

Turning to `O=C(c1cccs1)c1cnn2c(Cl)ccnc12` [Example 390, (7-Chloropyrazolo[1,5-a]pyrimidin-3-yl)(thien-2-yl)methanone], the melting point was in the range of 148 to 150 °C. Also, the pIC50 in series [1] (setting [3]) is 5.00 to 6.00. Also, the pIC50 in series [2] (Cellular activity in LoVo cell) was 4.70 to 6.00.

For the compound `O=C(c1cccs1)c1cnn2c(-c3cccc(-n4ccnc4)c3)ccnc12` [Example 244, [7-[3-(1H-imidazol-1-yl)phenyl]pyrazolo-[1,5-a]pyrimidin-3-yl]-2-thienyl-methanone], the melting point was in the range of 242 to 244 °C. The pIC50 in series [1] (setting [3]) was 5.00 to 6.00.

In the case of `CC(=O)c1cccc(-c2cnn3c(-c4cccc(NC(=O)CC(C)C)c4)ccnc23)c1` [Example 483, N-{3-[3-(3-Acetylphenyl)pyrazolo[1,5-a]pyrimidin-7-yl]phenyl}-3-methylbutanamide], the pIC50 is 4.30 to 5.00 in series [1] (setting [3]) and 4.70 to 6.00 in series [2] (Cellular activity in LoVo cell).

On to `CC(C)=CCNc1cccc(-c2ccnc3c(C(=O)c4cccs4)cnn23)c1` [Example 371, (7-{3-[(3-Methylbut-2-enyl)amino]phenyl}pyrazolo[1,5-a]pyrimidin-3-yl)(thien-2-yl)methanone], for which the figures for the pIC50 in series [1] (setting [3]) and in series [2] (Cellular activity in LoVo cell) were above 6.00 and above 7.00, respectively.

As to `C=CCOC(=O)Nc1cccc(-c2cc(C)nc3c(C(=O)c4cccs4)cnn23)c1` [Example 196, allyl 3-[5-methyl-3-(thien-2-ylcarbonyl)pyrazolo[1,5-a]pyrimidin-7-yl]phenylcarbamate], the pIC50 in series [1] (setting [4]) was above 6.00; in series [2] (LoVo colon cells), 6.00 to 7.00.

On to `CN(C)Cc1ccc(-c2cccc(-c3ccnc4c(C(=O)c5cccs5)cnn34)c2)cc1` [Example 463, (7-{4′-[(Dimethylamino)methyl]-1,1′-biphenyl-3-yl}pyrazolo[1,5-a]pyrimidin-3-yl)(thien-2-yl)methanone], for which the pIC50 in series [1] (setting [3]) was above 6.00; in series [2] (Cellular activity in LoVo cell) it was above 7.00.

On to `CCCOC(=O)Nc1cccc(-c2cc(C)nc3c(C(=O)c4cccs4)cnn23)c1` [Example 194, propyl 3-[5-methyl-3-(thien-2-ylcarbonyl)pyrazolo[1,5-a]pyrimidin-7-yl]phenylcarbamate], for which the pIC50 in series [1] (setting [4]) was above 6.00; in series [2] (LoVo colon cells), above 7.00.

For `O=C(Cc1ccncc1)Nc1cccc(-c2ccnc3c(C(=O)c4cccs4)cnn23)c1` [Example 427, 2-Pyridin-4-yl-N-{3-[3-(thien-2-ylcarbonyl)pyrazolo[1,5-a]pyrimidin-7-yl]phenyl}acetamide], the values for the pIC50 in series [1] (setting [3]) and in series [2] (Cellular activity in LoVo cell) were above 6.00 and 4.70 to 6.00, respectively.

With `CCc1ccc(-c2cccc(-c3ccnc4c(C(=O)c5cccs5)cnn34)c2)cc1` [Example 456, [7-(4′-Ethyl-1,1′-biphenyl-3-yl)pyrazolo[1,5-a]pyrimidin-3-yl](thien-2-yl)methanone], the pIC50 in series [1] (setting [3]) is above 6.00; in series [2] (Cellular activity in LoVo cell), above 7.00.

As to `O=C(CC1CC2CCC1C2)Nc1cccc(-c2ccnc3c(C(=O)c4cccs4)cnn23)c1` (stereo not drawn) [Example 76, 2-bicyclo[2.2.1]hept-2-yl-N-{3-[3-(thien-2-ylcarbonyl)pyrazolo[1,5-a]pyrimidin-7-yl]phenyl}acetamide], the pIC50 in series [1] (setting [4]) was above 6.00; in series [2] (LoVo colon cells), above 7.00.

For `CSCCOC(=O)Nc1cccc(-c2ccnc3c(C(=O)c4cccs4)cnn23)c1` [Example 178, 2-(methylthio)ethyl 3-[3-(thien-2-ylcarbonyl)pyrazolo[1,5-a]pyrimidin-7-yl]phenylcarbamate], the pIC50 is above 6.00 in series [1] (setting [4]) and above 7.00 in series [2] (LoVo colon cells).

As to `CC(C)NC(=O)Nc1cc(-c2ccnc3c(C(=O)c4cccs4)cnn23)ccc1F` [Example 382, N-{2-Fluoro-5-[3-(thien-2-ylcarbonyl)pyrazolo[1,5-a]pyrimidin-7-yl]phenyl}-N′-isopropylurea], the pIC50 in series [1] (setting [3]) was above 6.00; in series [2] (Cellular activity in LoVo cell), above 7.00.

Take `CC(C)CC(=O)Nc1cccc(-c2ccnc3c(-c4ccc(Oc5ccccc5)cc4)cnn23)c1` [Example 480, 3-Methyl-N-{3-[3-(4-phenoxyphenyl)pyrazolo[1,5-a]pyrimidin-7-yl]phenyl}butanamide]: the figures for the pIC50 in series [1] (setting [3]) and in series [2] (Cellular activity in LoVo cell) were 4.30 to 5.00 and 4.70 to 6.00, respectively.

In the case of `O=Cc1ccc(-c2cccc(-c3ccnc4c(C(=O)c5cccs5)cnn34)c2)cc1` [Example 458, 3′-[3-(Thien-2-ylcarbonyl)pyrazolo[1,5-a]pyrimidin-7-yl]-1,1′-biphenyl-4-carbaldehyde], the pIC50 is 5.00 to 6.00 in series [1] (setting [3]) and 6.00 to 7.00 in series [2] (Cellular activity in LoVo cell).

The compound `O=C(c1ccco1)c1cnn2c(-c3cccc(-n4cccc4)c3)ccnc12` [Example 269, 2-Furanyl[7-[3-(1H-pyrrol-1-yl)phenyl]pyrazolo[1,5-a]pyrimidin-3-yl]-methanone] gave a melting point of 204 to 206 °C. Besides, the pIC50 in series [1] (setting [3]) is 5.00 to 6.00.

Regarding `O=C(c1cccs1)c1cnn2c(-c3ccc(F)c(N(C(=O)c4ccccc4Cl)C(=O)c4ccccc4Cl)c3)ccnc12` [Example 438, 2-Chloro-N-(2-chlorobenzoyl)-N-{2-fluoro-5-[3-(thien-2-ylcarbonyl)pyrazolo[1,5-a]pyrimidin-7-yl]phenyl}benzamide], the pIC50 is above 6.00 in series [1] (setting [3]) and above 7.00 in series [2] (Cellular activity in LoVo cell).
